# From US8772480B2, “Inhibitors of PI3 kinase and/or mTOR” (priority 2009, dated 2014)
# Molecular target: ProfilerPro Kinase Selectivity Assay Kit kinases (Homo sapiens, UniProt O00141)
# Type: biochemical
# Details: SGK1; 1 μM compound concentration
# Procedure: (§1) Compounds were profiled using a LabChip® EZ Reader II platform and a ProfilerPro Kinase Selectivity Assay Kit (Caliper Lifesciences Inc., Hopkinton, Mass.). Compounds were tested at a concentration of 1 M in duplicate, with mean data reported as percent of control (POC).
row,Structure (SMILES),POC (Percent of control) SGK1
1,"c1cnc(Nc2cccc3[nH]ccc23)c(-c2ncnc3[nH]cnc23)c1 [Example 19, N-(3-(9H-Purin-6-yl)Pyridin-2-yl)-1H-Indol-4-Amine]",88 POC

# Molecular target: ProfilerPro Kinase Selectivity Assay Kit kinases (Homo sapiens, UniProt O14757)
# Type: biochemical
# Details: CHK1; 1 μM compound concentration
# Procedure: as §1
row,Structure (SMILES),POC (Percent of control) CHK1
1,"c1cnc(Nc2cccc3[nH]ccc23)c(-c2ncnc3[nH]cnc23)c1 [Example 19, N-(3-(9H-Purin-6-yl)Pyridin-2-yl)-1H-Indol-4-Amine]",83 POC

# Molecular target: ProfilerPro Kinase Selectivity Assay Kit kinases (Homo sapiens, UniProt O75116)
# Type: biochemical
# Details: ROCK2; 1 μM compound concentration
# Procedure: as §1
row,Structure (SMILES),POC (Percent of control) ROCK2
1,"c1cnc(Nc2cccc3[nH]ccc23)c(-c2ncnc3[nH]cnc23)c1 [Example 19, N-(3-(9H-Purin-6-yl)Pyridin-2-yl)-1H-Indol-4-Amine]",104 POC

# Molecular target: ProfilerPro Kinase Selectivity Assay Kit kinases (Homo sapiens, UniProt O75582)
# Type: biochemical
# Details: MSK1; 1 μM compound concentration
# Procedure: as §1
row,Structure (SMILES),POC (Percent of control) MSK1
1,"c1cnc(Nc2cccc3[nH]ccc23)c(-c2ncnc3[nH]cnc23)c1 [Example 19, N-(3-(9H-Purin-6-yl)Pyridin-2-yl)-1H-Indol-4-Amine]",106 POC

# Molecular target: ProfilerPro Kinase Selectivity Assay Kit kinases (Homo sapiens, UniProt O96017)
# Type: biochemical
# Details: CHK2; 1 μM compound concentration
# Procedure: as §1
row,Structure (SMILES),POC (Percent of control) CHK2
1,"c1cnc(Nc2cccc3[nH]ccc23)c(-c2ncnc3[nH]cnc23)c1 [Example 19, N-(3-(9H-Purin-6-yl)Pyridin-2-yl)-1H-Indol-4-Amine]",18 POC

# Molecular target: ProfilerPro Kinase Selectivity Assay Kit kinases (Homo sapiens, UniProt P00519)
# Type: biochemical
# Details: ABL; 1 μM compound concentration
# Procedure: as §1
row,Structure (SMILES),POC (Percent of control) ABL
1,"c1cnc(Nc2cccc3[nH]ccc23)c(-c2ncnc3[nH]cnc23)c1 [Example 19, N-(3-(9H-Purin-6-yl)Pyridin-2-yl)-1H-Indol-4-Amine]",19 POC

# Molecular target: ProfilerPro Kinase Selectivity Assay Kit kinases (Homo sapiens, UniProt P04049)
# Type: biochemical
# Details: cRAF; 1 μM compound concentration
# Procedure: as §1
row,Structure (SMILES),POC (Percent of control) cRAF
1,"c1cnc(Nc2cccc3[nH]ccc23)c(-c2ncnc3[nH]cnc23)c1 [Example 19, N-(3-(9H-Purin-6-yl)Pyridin-2-yl)-1H-Indol-4-Amine]",56 POC

# Molecular target: ProfilerPro Kinase Selectivity Assay Kit kinases (Homo sapiens, UniProt P06239)
# Type: biochemical
# Details: LCK; 1 μM compound concentration
# Procedure: as §1
row,Structure (SMILES),POC (Percent of control) LCK
1,"c1cnc(Nc2cccc3[nH]ccc23)c(-c2ncnc3[nH]cnc23)c1 [Example 19, N-(3-(9H-Purin-6-yl)Pyridin-2-yl)-1H-Indol-4-Amine]",70 POC

# Molecular target: ProfilerPro Kinase Selectivity Assay Kit kinases (Homo sapiens, UniProt P07948)
# Sequence (P07948 2-512 limits assumed): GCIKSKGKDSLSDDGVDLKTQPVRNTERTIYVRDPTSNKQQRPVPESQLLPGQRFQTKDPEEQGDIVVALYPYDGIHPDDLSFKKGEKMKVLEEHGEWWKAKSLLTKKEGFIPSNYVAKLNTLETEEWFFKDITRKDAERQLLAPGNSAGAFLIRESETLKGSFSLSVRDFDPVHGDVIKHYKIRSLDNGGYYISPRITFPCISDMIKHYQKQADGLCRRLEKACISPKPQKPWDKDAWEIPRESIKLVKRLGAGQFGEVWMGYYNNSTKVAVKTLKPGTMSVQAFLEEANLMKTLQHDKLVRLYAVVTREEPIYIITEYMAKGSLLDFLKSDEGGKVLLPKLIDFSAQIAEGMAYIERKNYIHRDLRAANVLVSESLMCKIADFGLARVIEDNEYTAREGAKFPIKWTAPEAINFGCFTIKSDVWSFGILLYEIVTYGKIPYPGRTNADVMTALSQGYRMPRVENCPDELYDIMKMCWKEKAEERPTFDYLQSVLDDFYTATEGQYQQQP
# Type: biochemical
# Details: LYN; 1 μM compound concentration
# Procedure: as §1
row,Structure (SMILES),POC (Percent of control) LYN
1,"c1cnc(Nc2cccc3[nH]ccc23)c(-c2ncnc3[nH]cnc23)c1 [Example 19, N-(3-(9H-Purin-6-yl)Pyridin-2-yl)-1H-Indol-4-Amine]",50 POC

# Molecular target: ProfilerPro Kinase Selectivity Assay Kit kinases (Homo sapiens, UniProt P08581)
# Sequence (P08581 25-1390 limits assumed): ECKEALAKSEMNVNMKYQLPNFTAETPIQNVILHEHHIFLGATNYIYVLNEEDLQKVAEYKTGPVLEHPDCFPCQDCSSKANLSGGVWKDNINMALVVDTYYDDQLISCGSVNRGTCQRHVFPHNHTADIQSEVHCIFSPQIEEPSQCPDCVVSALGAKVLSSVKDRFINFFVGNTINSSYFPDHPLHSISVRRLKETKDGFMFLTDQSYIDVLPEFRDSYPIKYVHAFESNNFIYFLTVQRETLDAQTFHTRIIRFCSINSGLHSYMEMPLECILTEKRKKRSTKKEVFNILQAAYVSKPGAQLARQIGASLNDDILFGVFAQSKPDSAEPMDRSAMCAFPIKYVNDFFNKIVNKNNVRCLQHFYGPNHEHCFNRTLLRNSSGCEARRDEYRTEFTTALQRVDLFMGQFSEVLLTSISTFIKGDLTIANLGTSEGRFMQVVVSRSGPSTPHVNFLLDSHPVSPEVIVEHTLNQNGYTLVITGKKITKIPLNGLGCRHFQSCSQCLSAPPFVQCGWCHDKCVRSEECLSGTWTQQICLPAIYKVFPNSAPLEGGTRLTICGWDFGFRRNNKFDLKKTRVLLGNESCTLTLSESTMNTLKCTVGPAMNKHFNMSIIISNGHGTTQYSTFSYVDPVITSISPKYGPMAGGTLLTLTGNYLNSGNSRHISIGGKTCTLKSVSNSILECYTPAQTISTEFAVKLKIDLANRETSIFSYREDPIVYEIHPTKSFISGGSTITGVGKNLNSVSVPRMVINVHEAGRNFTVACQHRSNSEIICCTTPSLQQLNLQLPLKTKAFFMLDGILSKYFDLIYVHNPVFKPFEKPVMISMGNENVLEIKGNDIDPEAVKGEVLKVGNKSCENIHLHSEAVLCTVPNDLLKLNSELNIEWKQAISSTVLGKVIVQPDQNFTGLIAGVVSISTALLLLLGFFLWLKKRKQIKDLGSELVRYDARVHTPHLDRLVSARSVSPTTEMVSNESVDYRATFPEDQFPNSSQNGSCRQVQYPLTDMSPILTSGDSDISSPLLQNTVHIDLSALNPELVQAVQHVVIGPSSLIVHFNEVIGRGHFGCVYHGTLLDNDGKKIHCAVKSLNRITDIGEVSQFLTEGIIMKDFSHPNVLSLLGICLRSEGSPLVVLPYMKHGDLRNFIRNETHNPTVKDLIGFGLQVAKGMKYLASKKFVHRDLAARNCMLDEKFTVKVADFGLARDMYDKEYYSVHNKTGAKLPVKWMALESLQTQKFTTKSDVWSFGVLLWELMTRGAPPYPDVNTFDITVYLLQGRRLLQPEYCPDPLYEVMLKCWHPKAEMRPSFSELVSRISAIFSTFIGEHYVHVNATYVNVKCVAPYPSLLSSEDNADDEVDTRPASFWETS
# Type: biochemical
# Details: cMET; 1 μM compound concentration
# Procedure: as §1
row,Structure (SMILES),POC (Percent of control) cMET
1,"c1cnc(Nc2cccc3[nH]ccc23)c(-c2ncnc3[nH]cnc23)c1 [Example 19, N-(3-(9H-Purin-6-yl)Pyridin-2-yl)-1H-Indol-4-Amine]",89 POC

# Molecular target: ProfilerPro Kinase Selectivity Assay Kit kinases (Homo sapiens, UniProt P11362)
# Sequence (P11362 22-822 limits assumed): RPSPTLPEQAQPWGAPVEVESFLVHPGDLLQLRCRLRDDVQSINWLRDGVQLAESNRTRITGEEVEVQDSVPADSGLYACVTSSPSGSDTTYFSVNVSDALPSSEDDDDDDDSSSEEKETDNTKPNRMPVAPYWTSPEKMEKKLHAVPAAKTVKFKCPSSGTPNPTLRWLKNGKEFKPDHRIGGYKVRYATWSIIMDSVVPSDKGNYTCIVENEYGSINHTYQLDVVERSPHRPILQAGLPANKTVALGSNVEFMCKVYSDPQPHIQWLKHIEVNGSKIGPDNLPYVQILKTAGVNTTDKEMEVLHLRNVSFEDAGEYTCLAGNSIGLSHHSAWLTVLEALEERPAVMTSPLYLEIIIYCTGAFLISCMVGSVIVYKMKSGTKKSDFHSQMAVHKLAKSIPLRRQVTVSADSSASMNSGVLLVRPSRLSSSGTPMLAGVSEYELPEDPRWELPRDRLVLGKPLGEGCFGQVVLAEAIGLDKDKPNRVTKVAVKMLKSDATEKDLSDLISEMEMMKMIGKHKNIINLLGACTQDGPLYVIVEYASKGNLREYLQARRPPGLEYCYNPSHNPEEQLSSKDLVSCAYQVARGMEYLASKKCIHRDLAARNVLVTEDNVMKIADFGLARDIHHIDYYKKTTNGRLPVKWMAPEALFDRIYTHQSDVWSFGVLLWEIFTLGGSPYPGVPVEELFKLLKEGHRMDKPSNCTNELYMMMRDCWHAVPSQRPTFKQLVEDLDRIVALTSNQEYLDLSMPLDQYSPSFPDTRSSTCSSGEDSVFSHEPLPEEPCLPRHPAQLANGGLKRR
# Type: biochemical
# Details: FGFR1; 1 μM compound concentration
# Procedure: as §1
row,Structure (SMILES),POC (Percent of control) FGFR1
1,"c1cnc(Nc2cccc3[nH]ccc23)c(-c2ncnc3[nH]cnc23)c1 [Example 19, N-(3-(9H-Purin-6-yl)Pyridin-2-yl)-1H-Indol-4-Amine]",51 POC

# Molecular target: ProfilerPro Kinase Selectivity Assay Kit kinases (Homo sapiens, UniProt P23443)
# Type: biochemical
# Details: p70S6K; 1 μM compound concentration
# Procedure: as §1
row,Structure (SMILES),POC (Percent of control) p70S6K
1,"c1cnc(Nc2cccc3[nH]ccc23)c(-c2ncnc3[nH]cnc23)c1 [Example 19, N-(3-(9H-Purin-6-yl)Pyridin-2-yl)-1H-Indol-4-Amine]",91 POC

# Molecular target: ProfilerPro Kinase Selectivity Assay Kit kinases (Homo sapiens, UniProt P24941)
# Type: biochemical
# Details: CDK2; 1 μM compound concentration
# Procedure: as §1
row,Structure (SMILES),POC (Percent of control) CDK2
1,"c1cnc(Nc2cccc3[nH]ccc23)c(-c2ncnc3[nH]cnc23)c1 [Example 19, N-(3-(9H-Purin-6-yl)Pyridin-2-yl)-1H-Indol-4-Amine]",90 POC

# Molecular target: ProfilerPro Kinase Selectivity Assay Kit kinases (Homo sapiens, UniProt P27361)
# Type: biochemical
# Details: ERK1; 1 μM compound concentration
# Procedure: as §1
row,Structure (SMILES),POC (Percent of control) ERK1
1,"c1cnc(Nc2cccc3[nH]ccc23)c(-c2ncnc3[nH]cnc23)c1 [Example 19, N-(3-(9H-Purin-6-yl)Pyridin-2-yl)-1H-Indol-4-Amine]",93 POC

# Molecular target: ProfilerPro Kinase Selectivity Assay Kit kinases (Homo sapiens, UniProt P28482)
# Type: biochemical
# Details: ERK2; 1 μM compound concentration
# Procedure: as §1
row,Structure (SMILES),POC (Percent of control) ERK2
1,"c1cnc(Nc2cccc3[nH]ccc23)c(-c2ncnc3[nH]cnc23)c1 [Example 19, N-(3-(9H-Purin-6-yl)Pyridin-2-yl)-1H-Indol-4-Amine]",94 POC

# Molecular target: ProfilerPro Kinase Selectivity Assay Kit kinases (Homo sapiens, UniProt P31749)
# Type: biochemical
# Details: AKT1; 1 μM compound concentration
# Procedure: as §1
row,Structure (SMILES),POC (Percent of control) AKT1
1,"c1cnc(Nc2cccc3[nH]ccc23)c(-c2ncnc3[nH]cnc23)c1 [Example 19, N-(3-(9H-Purin-6-yl)Pyridin-2-yl)-1H-Indol-4-Amine]",94 POC

# Molecular target: ProfilerPro Kinase Selectivity Assay Kit kinases (Homo sapiens, UniProt P35968)
# Type: biochemical
# Details: KDR; 1 μM compound concentration
# Procedure: as §1
row,Structure (SMILES),POC (Percent of control) KDR
1,"c1cnc(Nc2cccc3[nH]ccc23)c(-c2ncnc3[nH]cnc23)c1 [Example 19, N-(3-(9H-Purin-6-yl)Pyridin-2-yl)-1H-Indol-4-Amine]",29 POC

# Molecular target: ProfilerPro Kinase Selectivity Assay Kit kinases (Homo sapiens, UniProt P36888)
# Sequence (P36888 27-993 limits assumed): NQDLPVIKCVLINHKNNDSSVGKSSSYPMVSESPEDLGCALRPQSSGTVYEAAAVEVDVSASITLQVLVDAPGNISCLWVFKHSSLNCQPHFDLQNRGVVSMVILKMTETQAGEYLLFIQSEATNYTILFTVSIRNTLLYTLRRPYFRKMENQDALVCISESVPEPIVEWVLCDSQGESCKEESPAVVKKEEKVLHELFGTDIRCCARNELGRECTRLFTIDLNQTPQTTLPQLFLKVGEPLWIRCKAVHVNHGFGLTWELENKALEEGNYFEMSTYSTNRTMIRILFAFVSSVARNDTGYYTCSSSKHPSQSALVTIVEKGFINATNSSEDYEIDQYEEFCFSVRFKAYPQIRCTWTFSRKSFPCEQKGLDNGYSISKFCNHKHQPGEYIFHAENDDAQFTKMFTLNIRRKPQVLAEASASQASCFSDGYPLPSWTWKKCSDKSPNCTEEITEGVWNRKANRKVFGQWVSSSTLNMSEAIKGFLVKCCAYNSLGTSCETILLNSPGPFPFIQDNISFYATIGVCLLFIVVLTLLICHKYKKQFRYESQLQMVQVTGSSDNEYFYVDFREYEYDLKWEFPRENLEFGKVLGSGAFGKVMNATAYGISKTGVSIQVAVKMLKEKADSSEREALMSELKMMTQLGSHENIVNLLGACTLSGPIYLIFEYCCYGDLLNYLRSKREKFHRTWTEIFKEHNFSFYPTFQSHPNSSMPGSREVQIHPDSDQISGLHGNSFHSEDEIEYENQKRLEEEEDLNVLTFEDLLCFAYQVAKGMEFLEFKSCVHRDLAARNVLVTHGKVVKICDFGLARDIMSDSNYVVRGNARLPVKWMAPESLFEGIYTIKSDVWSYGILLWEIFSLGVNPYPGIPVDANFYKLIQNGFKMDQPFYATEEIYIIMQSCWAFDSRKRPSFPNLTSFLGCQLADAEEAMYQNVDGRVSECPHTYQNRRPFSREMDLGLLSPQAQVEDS
# Type: biochemical
# Details: FLT3; 1 μM compound concentration
# Procedure: as §1
row,Structure (SMILES),POC (Percent of control) FLT3
1,"c1cnc(Nc2cccc3[nH]ccc23)c(-c2ncnc3[nH]cnc23)c1 [Example 19, N-(3-(9H-Purin-6-yl)Pyridin-2-yl)-1H-Indol-4-Amine]",25 POC

# Molecular target: ProfilerPro Kinase Selectivity Assay Kit kinases (Homo sapiens, UniProt P49137)
# Type: biochemical
# Details: MAPKAPK2; 1 μM compound concentration
# Procedure: as §1
row,Structure (SMILES),POC (Percent of control) MAPKAPK2
1,"c1cnc(Nc2cccc3[nH]ccc23)c(-c2ncnc3[nH]cnc23)c1 [Example 19, N-(3-(9H-Purin-6-yl)Pyridin-2-yl)-1H-Indol-4-Amine]",90 POC

# Molecular target: ProfilerPro Kinase Selectivity Assay Kit kinases (Homo sapiens, UniProt P49841)
# Type: biochemical
# Details: GSK3 beta; 1 μM compound concentration
# Procedure: as §1
row,Structure (SMILES),POC (Percent of control) GSK3 beta
1,"c1cnc(Nc2cccc3[nH]ccc23)c(-c2ncnc3[nH]cnc23)c1 [Example 19, N-(3-(9H-Purin-6-yl)Pyridin-2-yl)-1H-Indol-4-Amine]",79 POC

# Molecular target: ProfilerPro Kinase Selectivity Assay Kit kinases (Homo sapiens, UniProt Q05513)
# Type: biochemical
# Details: PKC zeta; 1 μM compound concentration
# Procedure: as §1
row,Structure (SMILES),POC (Percent of control) PKC zeta
1,"c1cnc(Nc2cccc3[nH]ccc23)c(-c2ncnc3[nH]cnc23)c1 [Example 19, N-(3-(9H-Purin-6-yl)Pyridin-2-yl)-1H-Indol-4-Amine]",98 POC

# Molecular target: ProfilerPro Kinase Selectivity Assay Kit kinases (Homo sapiens, UniProt Q06187)
# Sequence (Q06187 2-659 limits assumed): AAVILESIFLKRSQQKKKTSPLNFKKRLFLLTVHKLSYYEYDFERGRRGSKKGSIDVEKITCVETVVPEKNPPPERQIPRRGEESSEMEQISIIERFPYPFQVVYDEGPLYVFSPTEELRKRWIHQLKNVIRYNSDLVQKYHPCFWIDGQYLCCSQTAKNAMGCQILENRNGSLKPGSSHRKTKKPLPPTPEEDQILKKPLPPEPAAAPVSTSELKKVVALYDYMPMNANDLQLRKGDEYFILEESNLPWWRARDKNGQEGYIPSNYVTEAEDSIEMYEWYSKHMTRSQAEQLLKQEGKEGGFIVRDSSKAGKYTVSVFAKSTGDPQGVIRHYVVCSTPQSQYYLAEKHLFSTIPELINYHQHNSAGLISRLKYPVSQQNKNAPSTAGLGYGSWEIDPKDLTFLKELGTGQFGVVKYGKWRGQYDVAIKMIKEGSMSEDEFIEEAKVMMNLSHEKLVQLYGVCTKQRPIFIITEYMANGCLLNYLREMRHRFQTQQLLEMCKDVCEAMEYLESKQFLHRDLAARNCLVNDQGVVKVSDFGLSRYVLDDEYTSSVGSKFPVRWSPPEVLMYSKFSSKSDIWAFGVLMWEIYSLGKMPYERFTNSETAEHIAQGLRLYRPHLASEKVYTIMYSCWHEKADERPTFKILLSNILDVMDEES
# Type: biochemical
# Details: BTK; 1 μM compound concentration
# Procedure: as §1
row,Structure (SMILES),POC (Percent of control) BTK
1,"c1cnc(Nc2cccc3[nH]ccc23)c(-c2ncnc3[nH]cnc23)c1 [Example 19, N-(3-(9H-Purin-6-yl)Pyridin-2-yl)-1H-Indol-4-Amine]",75 POC

# Molecular target: ProfilerPro Kinase Selectivity Assay Kit kinases (Homo sapiens, UniProt Q13627)
# Type: biochemical
# Details: DYRK1a; 1 μM compound concentration
# Procedure: as §1
row,Structure (SMILES),POC (Percent of control) DYRK1a
1,"c1cnc(Nc2cccc3[nH]ccc23)c(-c2ncnc3[nH]cnc23)c1 [Example 19, N-(3-(9H-Purin-6-yl)Pyridin-2-yl)-1H-Indol-4-Amine]",66 POC

# Molecular target: ProfilerPro Kinase Selectivity Assay Kit kinases (Homo sapiens, UniProt Q13976)
# Sequence (Q13976 2-671 limits assumed): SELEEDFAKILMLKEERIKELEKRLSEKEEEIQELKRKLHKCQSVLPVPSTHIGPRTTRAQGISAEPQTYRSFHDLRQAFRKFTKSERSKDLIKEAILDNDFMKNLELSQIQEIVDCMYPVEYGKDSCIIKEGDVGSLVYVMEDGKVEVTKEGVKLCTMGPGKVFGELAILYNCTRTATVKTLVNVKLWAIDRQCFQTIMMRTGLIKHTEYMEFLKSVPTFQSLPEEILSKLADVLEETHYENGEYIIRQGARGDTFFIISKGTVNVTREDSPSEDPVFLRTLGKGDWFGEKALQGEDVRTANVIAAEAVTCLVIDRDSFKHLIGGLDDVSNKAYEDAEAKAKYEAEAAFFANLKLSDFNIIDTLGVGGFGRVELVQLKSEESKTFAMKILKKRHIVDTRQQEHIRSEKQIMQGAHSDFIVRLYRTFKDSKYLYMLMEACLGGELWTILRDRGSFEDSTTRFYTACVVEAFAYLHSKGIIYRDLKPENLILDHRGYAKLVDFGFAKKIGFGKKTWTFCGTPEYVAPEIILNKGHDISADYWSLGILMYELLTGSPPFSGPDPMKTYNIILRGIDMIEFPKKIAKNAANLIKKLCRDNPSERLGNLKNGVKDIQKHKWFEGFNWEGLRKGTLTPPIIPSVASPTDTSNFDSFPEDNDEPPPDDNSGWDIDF
# Type: biochemical
# Details: PKGa2; 1 μM compound concentration
# Procedure: as §1
row,Structure (SMILES),POC (Percent of control) PKGa2
1,"c1cnc(Nc2cccc3[nH]ccc23)c(-c2ncnc3[nH]cnc23)c1 [Example 19, N-(3-(9H-Purin-6-yl)Pyridin-2-yl)-1H-Indol-4-Amine]",93 POC

# Molecular target: ProfilerPro Kinase Selectivity Assay Kit kinases (Homo sapiens, UniProt Q16539)
# Type: biochemical
# Details: p38 alpha; 1 μM compound concentration
# Procedure: as §1
row,Structure (SMILES),POC (Percent of control) p38 alpha
1,"c1cnc(Nc2cccc3[nH]ccc23)c(-c2ncnc3[nH]cnc23)c1 [Example 19, N-(3-(9H-Purin-6-yl)Pyridin-2-yl)-1H-Indol-4-Amine]",86 POC

# Molecular target: ProfilerPro Kinase Selectivity Assay Kit kinases (Homo sapiens, UniProt Q16566)
# Type: biochemical
# Details: CAMK4; 1 μM compound concentration
# Procedure: as §1
row,Structure (SMILES),POC (Percent of control) CAMK4
1,"c1cnc(Nc2cccc3[nH]ccc23)c(-c2ncnc3[nH]cnc23)c1 [Example 19, N-(3-(9H-Purin-6-yl)Pyridin-2-yl)-1H-Indol-4-Amine]",77 POC

# Molecular target: ProfilerPro Kinase Selectivity Assay Kit kinases (Homo sapiens, UniProt Q8IW41)
# Type: biochemical
# Details: PRAK; 1 μM compound concentration
# Procedure: as §1
row,Structure (SMILES),POC (Percent of control) PRAK
1,"c1cnc(Nc2cccc3[nH]ccc23)c(-c2ncnc3[nH]cnc23)c1 [Example 19, N-(3-(9H-Purin-6-yl)Pyridin-2-yl)-1H-Indol-4-Amine]",84 POC

# Molecular target: ProfilerPro Kinase Selectivity Assay Kit kinases (Homo sapiens, UniProt Q9BZL6)
# Type: biochemical
# Details: PKD2; 1 μM compound concentration
# Procedure: as §1
row,Structure (SMILES),POC (Percent of control) PKD2
1,"c1cnc(Nc2cccc3[nH]ccc23)c(-c2ncnc3[nH]cnc23)c1 [Example 19, N-(3-(9H-Purin-6-yl)Pyridin-2-yl)-1H-Indol-4-Amine]",97 POC

# Molecular target: ProfilerPro Kinase Selectivity Assay Kit kinases (Homo sapiens, UniProt Q9P0L2)
# Type: biochemical
# Details: MARK1; 1 μM compound concentration
# Procedure: as §1
row,Structure (SMILES),POC (Percent of control) MARK1
1,"c1cnc(Nc2cccc3[nH]ccc23)c(-c2ncnc3[nH]cnc23)c1 [Example 19, N-(3-(9H-Purin-6-yl)Pyridin-2-yl)-1H-Indol-4-Amine]",95 POC

# Molecular target: ProfilerPro Kinase Selectivity Assay Kit kinases (Homo sapiens, UniProt Q9P1W9)
# Type: biochemical
# Details: PIM2; 1 μM compound concentration
# Procedure: as §1
row,Structure (SMILES),POC (Percent of control) PIM2
1,"c1cnc(Nc2cccc3[nH]ccc23)c(-c2ncnc3[nH]cnc23)c1 [Example 19, N-(3-(9H-Purin-6-yl)Pyridin-2-yl)-1H-Indol-4-Amine]",105 POC

# System: ProfilerPro Kinase Selectivity Assay Kit kinases
# Type: biochemical
# Details: AMPK; 1 μM compound concentration
# Procedure: as §1
row,Structure (SMILES),POC (Percent of control) AMPK
1,"c1cnc(Nc2cccc3[nH]ccc23)c(-c2ncnc3[nH]cnc23)c1 [Example 19, N-(3-(9H-Purin-6-yl)Pyridin-2-yl)-1H-Indol-4-Amine]",57 POC

# Same assay, conditions: CAMK2; 1 μM compound concentration
row,Structure (SMILES),POC (Percent of control) CAMK2
1,"c1cnc(Nc2cccc3[nH]ccc23)c(-c2ncnc3[nH]cnc23)c1 [Example 19, N-(3-(9H-Purin-6-yl)Pyridin-2-yl)-1H-Indol-4-Amine]",84 POC

# Same assay, conditions: PKC beta2; 1 μM compound concentration
row,Structure (SMILES),POC (Percent of control) PKC beta2
1,"c1cnc(Nc2cccc3[nH]ccc23)c(-c2ncnc3[nH]cnc23)c1 [Example 19, N-(3-(9H-Purin-6-yl)Pyridin-2-yl)-1H-Indol-4-Amine]",94 POC

# Same assay, conditions: TAK1; 1 μM compound concentration
row,Structure (SMILES),POC (Percent of control) TAK1
1,"c1cnc(Nc2cccc3[nH]ccc23)c(-c2ncnc3[nH]cnc23)c1 [Example 19, N-(3-(9H-Purin-6-yl)Pyridin-2-yl)-1H-Indol-4-Amine]",90 POC
